The EC50 is the midpoint of the concentration-response curve.

For assay [1], the target named is T1, Rap guanine nucleotide exchange factor 4 (Mus musculus, UniProt Q9EQZ6).
T1 sequence (Q9EQZ6 whole entry): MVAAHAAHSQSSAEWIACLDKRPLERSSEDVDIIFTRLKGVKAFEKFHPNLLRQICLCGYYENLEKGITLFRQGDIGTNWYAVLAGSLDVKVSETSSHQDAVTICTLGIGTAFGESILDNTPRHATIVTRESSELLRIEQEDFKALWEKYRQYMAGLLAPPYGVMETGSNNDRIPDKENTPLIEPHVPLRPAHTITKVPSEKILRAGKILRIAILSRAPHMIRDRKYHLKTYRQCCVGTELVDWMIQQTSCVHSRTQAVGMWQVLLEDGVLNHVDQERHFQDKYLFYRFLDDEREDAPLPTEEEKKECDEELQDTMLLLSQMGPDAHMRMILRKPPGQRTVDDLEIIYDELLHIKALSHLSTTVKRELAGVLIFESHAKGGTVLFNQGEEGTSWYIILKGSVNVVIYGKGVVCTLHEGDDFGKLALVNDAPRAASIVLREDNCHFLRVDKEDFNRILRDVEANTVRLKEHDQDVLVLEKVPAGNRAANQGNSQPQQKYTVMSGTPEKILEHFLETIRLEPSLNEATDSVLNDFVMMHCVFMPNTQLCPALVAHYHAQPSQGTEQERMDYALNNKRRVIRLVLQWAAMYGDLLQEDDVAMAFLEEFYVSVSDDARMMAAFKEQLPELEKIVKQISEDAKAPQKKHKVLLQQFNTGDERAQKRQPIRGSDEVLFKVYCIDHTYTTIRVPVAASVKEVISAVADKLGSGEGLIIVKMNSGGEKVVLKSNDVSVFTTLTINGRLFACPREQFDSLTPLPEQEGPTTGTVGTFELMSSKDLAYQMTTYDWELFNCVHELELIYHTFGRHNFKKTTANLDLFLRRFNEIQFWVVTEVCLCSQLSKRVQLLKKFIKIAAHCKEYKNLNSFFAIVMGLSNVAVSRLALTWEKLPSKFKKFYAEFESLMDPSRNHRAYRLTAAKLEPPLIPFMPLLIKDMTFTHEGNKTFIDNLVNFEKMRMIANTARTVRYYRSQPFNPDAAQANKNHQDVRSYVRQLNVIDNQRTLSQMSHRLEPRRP
The assay is described as follows: Inhibition of 8Fluo-cAMP binding to DEP domain deficient mouse EPAC2 (280 to 998 residues) measured after 5 mins by fluorescence polarization assay. On the technique in general: Polarisation of emitted light reports the rotation of a fluorescent probe.

Assay [2] concerns the target T2, Rap guanine nucleotide exchange factor 3 (Homo sapiens, UniProt O95398).
T2 sequence (O95398 whole entry): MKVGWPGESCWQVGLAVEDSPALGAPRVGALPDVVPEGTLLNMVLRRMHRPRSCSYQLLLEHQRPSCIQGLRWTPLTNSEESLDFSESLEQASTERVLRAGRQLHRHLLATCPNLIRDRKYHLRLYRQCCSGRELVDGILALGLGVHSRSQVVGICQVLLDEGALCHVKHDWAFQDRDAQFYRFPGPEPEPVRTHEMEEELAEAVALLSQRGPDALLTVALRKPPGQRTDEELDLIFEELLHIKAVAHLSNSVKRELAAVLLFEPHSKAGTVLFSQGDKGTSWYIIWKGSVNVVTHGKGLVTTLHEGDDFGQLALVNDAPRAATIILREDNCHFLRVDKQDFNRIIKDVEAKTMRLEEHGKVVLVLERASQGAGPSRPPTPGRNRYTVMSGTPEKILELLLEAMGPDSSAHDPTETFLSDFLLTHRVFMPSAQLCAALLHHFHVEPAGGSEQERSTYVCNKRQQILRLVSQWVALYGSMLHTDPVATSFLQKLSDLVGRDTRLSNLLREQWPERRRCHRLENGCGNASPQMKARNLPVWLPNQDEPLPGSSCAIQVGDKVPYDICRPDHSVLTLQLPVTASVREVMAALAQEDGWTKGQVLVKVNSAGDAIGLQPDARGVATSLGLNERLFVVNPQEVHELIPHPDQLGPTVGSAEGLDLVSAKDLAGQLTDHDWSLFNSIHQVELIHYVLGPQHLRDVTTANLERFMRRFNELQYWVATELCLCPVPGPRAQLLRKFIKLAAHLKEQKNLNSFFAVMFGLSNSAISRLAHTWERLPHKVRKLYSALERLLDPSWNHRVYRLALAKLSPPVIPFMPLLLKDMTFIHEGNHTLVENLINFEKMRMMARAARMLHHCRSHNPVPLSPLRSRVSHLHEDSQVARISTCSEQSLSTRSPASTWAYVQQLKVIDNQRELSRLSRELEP
The assay is described as follows: Inhibition of 8Fluo-cAMP binding to recombinant human His-tagged EPAC1 (157 to 881 residues) expressed in Escherichia coli measured after 5 mins by fluorescence polarization assay.

The target in a further assay is CNGA2/CNGA4/CNGB1 (Rattus norvegicus, UniProt O35788+Q00195+Q64359). Nature of the assay: Activation of recombinant rat CNGA2/CNGA4/CNGB1b heterotetramer expressed in Xenopus laevis oocyte assessed as increase in current amplitude by patch-clamp electrophysiology method. On the technique in general: The patch-clamp technique gives a direct electrical read-out from membranes.

Assay [3] deals with T3, Cyclic nucleotide-gated channel alpha-2 (Rattus norvegicus, UniProt Q00195).
T3 sequence (Q00195 whole entry): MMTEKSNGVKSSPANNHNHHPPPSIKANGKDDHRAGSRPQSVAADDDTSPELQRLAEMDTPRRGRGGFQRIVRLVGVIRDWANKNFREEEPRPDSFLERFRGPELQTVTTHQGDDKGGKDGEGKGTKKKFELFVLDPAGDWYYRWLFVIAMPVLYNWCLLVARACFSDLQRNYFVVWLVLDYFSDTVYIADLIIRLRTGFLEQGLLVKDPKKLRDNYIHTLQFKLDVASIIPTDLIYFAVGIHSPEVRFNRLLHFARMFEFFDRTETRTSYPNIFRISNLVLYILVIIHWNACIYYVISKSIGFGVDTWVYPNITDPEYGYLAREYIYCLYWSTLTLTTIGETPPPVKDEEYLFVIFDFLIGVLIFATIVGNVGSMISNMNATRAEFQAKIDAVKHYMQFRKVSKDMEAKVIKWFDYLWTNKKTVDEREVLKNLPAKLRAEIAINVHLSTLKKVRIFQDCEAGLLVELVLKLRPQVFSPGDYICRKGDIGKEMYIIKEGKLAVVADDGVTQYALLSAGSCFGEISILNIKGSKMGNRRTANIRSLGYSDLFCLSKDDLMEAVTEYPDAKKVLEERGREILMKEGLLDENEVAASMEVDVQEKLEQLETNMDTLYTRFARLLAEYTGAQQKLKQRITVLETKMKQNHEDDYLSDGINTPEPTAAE
The assay is described as follows: Activation of recombinant rat CNGA2 expressed in Xenopus laevis oocyte assessed as increase in current amplitude by patch-clamp electrophysiology method.

Assay [4] addresses cAMP-dependent protein kinase type II-alpha regulatory subunit (Homo sapiens) (UniProt P13861).
Description: Activation of recombinant human PKAR2alpha expressed in Escherichia coli using Kemptide as substrate by spectrophotometric method
Assay [5] deals with cAMP-dependent protein kinase type I-alpha regulatory subunit (Homo sapiens) (UniProt P10644).
Description: Activation of recombinant human PKAR1alpha expressed in Escherichia coli using Kemptide as substrate by spectrophotometric method
Assay [6] concerns the target T4, Potassium/sodium hyperpolarization-activated cyclic nucleotide-gated channel 2 (Mus musculus, UniProt O88703).
T4 sequence (O88703 whole entry): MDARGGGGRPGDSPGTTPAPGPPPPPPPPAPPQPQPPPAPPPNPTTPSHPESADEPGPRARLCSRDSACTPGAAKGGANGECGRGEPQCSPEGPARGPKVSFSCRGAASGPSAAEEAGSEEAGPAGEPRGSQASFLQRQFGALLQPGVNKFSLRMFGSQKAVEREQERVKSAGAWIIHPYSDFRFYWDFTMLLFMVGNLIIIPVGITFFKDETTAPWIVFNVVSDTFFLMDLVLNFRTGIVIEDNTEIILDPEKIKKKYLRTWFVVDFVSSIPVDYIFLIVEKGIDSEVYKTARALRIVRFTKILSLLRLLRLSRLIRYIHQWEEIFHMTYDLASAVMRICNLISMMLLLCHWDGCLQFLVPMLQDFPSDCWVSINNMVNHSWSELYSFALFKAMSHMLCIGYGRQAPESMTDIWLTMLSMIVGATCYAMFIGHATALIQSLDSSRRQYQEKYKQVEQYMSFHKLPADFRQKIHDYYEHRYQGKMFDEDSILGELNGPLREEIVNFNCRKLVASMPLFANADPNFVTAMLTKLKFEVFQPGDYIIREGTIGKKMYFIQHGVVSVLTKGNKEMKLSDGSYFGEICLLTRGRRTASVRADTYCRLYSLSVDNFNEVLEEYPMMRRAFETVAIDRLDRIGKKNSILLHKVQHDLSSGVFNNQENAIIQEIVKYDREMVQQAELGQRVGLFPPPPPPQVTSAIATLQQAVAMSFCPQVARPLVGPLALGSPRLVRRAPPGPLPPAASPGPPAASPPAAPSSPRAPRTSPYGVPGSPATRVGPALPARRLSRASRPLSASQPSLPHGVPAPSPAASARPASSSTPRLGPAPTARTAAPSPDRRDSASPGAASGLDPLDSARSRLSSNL
Nature of the assay: Activation of recombinant mouse HCN2 expressed in Xenopus laevis oocyte assessed as increase in current amplitude at -30 mV holding potential by patch-clamp electrophysiology method.

Chain of cAMP-dependent protein kinase type I-alpha regulatory subunit (Homo sapiens) (P10644 whole entry): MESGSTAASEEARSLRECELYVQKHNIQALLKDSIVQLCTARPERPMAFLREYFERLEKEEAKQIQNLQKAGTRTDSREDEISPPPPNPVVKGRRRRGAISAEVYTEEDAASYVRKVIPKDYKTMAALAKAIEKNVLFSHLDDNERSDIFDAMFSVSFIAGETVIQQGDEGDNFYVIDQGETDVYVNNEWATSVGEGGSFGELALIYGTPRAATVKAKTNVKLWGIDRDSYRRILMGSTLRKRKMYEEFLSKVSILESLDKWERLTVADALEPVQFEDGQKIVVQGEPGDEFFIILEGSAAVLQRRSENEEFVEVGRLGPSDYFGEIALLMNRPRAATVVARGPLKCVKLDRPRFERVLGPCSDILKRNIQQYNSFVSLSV
Chain of cAMP-dependent protein kinase type II-alpha regulatory subunit (Homo sapiens) (P13861 whole entry): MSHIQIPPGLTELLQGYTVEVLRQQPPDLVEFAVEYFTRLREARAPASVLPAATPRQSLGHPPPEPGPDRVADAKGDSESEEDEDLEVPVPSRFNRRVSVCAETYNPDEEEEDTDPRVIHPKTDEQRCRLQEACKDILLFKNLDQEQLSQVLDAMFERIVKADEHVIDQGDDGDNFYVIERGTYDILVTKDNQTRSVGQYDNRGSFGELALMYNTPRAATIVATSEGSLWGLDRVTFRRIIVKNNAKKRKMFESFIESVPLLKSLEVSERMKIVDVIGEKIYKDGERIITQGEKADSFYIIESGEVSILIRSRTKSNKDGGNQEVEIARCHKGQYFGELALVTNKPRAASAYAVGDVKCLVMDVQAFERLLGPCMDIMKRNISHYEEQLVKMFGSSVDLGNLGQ
Chain of CNGA2/CNGA4/CNGB1 (Q64359 whole entry, one chain of several): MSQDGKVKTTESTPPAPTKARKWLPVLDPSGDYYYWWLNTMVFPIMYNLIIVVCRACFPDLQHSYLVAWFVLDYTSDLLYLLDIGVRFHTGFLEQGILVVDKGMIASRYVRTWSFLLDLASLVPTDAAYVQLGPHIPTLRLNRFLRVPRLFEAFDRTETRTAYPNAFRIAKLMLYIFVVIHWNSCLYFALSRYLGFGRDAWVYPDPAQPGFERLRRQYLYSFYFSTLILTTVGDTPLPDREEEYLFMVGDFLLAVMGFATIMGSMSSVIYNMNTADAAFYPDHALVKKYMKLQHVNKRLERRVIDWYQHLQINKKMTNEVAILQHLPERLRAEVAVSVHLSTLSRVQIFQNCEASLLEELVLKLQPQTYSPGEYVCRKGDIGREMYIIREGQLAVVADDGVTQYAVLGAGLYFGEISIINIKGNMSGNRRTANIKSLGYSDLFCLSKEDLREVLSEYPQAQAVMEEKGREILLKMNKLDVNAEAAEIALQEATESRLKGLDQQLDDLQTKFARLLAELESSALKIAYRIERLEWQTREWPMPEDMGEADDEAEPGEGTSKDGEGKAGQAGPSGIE
Chain of CNGA2/CNGA4/CNGB1 (O35788 whole entry, one chain of several): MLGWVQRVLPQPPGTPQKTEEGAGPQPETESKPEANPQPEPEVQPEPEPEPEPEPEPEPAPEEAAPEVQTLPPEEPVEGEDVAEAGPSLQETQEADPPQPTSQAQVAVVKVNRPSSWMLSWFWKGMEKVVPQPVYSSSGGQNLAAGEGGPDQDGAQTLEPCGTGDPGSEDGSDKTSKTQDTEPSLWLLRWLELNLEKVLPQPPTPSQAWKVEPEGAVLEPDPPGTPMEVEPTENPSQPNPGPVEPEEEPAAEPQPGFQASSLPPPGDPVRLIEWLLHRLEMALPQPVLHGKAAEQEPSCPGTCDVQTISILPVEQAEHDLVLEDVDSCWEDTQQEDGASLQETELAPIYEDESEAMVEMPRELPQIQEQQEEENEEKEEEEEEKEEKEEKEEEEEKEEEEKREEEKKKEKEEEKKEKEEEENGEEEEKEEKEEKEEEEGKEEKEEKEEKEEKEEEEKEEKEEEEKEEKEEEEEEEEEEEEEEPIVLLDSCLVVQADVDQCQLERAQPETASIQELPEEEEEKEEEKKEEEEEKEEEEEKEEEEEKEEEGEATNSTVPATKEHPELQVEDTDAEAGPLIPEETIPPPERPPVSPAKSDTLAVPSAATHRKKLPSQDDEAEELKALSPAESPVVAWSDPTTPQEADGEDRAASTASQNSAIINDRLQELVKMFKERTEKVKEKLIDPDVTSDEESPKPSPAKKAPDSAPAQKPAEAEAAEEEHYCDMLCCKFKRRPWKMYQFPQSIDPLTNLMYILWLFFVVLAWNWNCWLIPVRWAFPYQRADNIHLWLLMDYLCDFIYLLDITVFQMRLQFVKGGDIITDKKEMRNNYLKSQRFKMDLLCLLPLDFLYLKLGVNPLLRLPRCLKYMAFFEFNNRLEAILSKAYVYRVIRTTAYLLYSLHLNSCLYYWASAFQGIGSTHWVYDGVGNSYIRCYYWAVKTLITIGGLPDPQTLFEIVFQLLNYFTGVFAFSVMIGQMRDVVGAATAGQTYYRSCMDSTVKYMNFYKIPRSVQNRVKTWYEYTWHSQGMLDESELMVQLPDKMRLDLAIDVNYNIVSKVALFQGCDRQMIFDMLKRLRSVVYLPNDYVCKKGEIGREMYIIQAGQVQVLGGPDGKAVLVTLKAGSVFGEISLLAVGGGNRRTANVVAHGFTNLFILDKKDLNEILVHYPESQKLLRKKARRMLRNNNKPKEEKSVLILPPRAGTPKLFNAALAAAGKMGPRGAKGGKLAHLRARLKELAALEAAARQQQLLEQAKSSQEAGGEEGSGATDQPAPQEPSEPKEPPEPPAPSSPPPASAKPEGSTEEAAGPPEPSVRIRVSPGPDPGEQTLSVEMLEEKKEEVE

With `Nc1ncnc2c1cc(Br)n2[C@@H]1O[C@@H]2COP(=O)(O)O[C@H]2[C@H]1O`, the EC50 was determined as 300 nM in assay [1], 530 nM in assay [2], 630 nM at CNGA2/CNGA4/CNGB1 and 6400 nM in assay [3]. Further, the Kact in assay [4] came to 0.072 µM; in assay [5] it was 0.043 µM.

As to `Nc1ncnc2c1nc(Br)n2[C@@H]1O[C@@H]2COP(=O)(O)O[C@H]2[C@H]1O`, the EC50 amounted to 780 nM in assay [1], 1090 nM in assay [2], 1600 nM at CNGA2/CNGA4/CNGB1 and 15400 nM in assay [3]. Also, the Kact in assay [4] was found to be 0.088 µM; in assay [5], 0.056 µM.

As to `Nc1ncnc2c1ccn2[C@@H]1O[C@@H]2COP(=O)(O)O[C@H]2[C@H]1O`, the EC50 is 2060 nM in assay [1]; 2750 nM in assay [2]; 15 nM in assay [6]; 360 nM on CNGA2/CNGA4/CNGB1; 2080 nM in assay [3]. In addition, the results for the Kact in assay [4] and in assay [5] were 0.238 µM and 0.199 µM, respectively.

On to `Nc1ncnc2c1c(Br)cn2[C@@H]1O[C@@H]2COP(=O)(O)O[C@H]2[C@H]1O`, for which the EC50 is 2360 nM in assay [1], 2540 nM in assay [2], 120 nM on CNGA2/CNGA4/CNGB1 and 540 nM in assay [3]. Further, the Kact in assay [4] stood at 0.097 µM; in assay [5], 0.028 µM.

Source of the values: ChEMBL document CHEMBL4400574, “Chemical synthesis and biological activity of novel brominated 7-deazaadenosine-3',5'-cyclic monophosphate derivatives” (Bioorg Med Chem, 2019).
